Laboratory results as given in paper PMC7355955, “Validation of Pharmacological Protocols for Targeted Inhibition of Canalicular MRP2 Activity in Hepatocytes Using [^99mTc]mebrofenin Imaging in Rats” (Pharmaceutics, 2020).
Read-outs that look alike come from different tables or passages of the source.

What was measured:
rats = settings: rat, in vivo
human MRP2 = human MRP2 (Homo sapiens, UniProt Q92887); assay: cell-based
Method: Stably transfected MDCK-II-MRP2 cells overexpressing human MRP2 were a kind gift from A. Schinkel ([…], The Netherlands). Cells were cultured in a controlled atmosphere at 37 °C, 5% CO2. The culture medium was composed of DMEM Glutamax (Dulbecco’s Modified Eagle Medium, 4.5 g/L D-glucose, pyruvate) supplemented with 10% fetal bovine serum and 1% antibiotics (penicillin and streptomycin 5000 U/mL). MRP2-mediated transport was assessed using the calcein-AM assay. Cells were seeded in 24-well plates (30,000 cells per well) in 500 μL of culture medium. […] After 30 min at 37 °C, the incubation buffer was removed and cell monolayers were rapidly washed with 300 μL of ice-cold buffer (Dulbecco’s phosphate buffered saline + CaCl2 + MgCl2). Cells were then lysed by 10 min of incubation with 500 μL of NaOH (10 mM). […] For each inhibitor, uptake data were normalized to describe the extent of inhibition from 0 to maximal (100%) inhibition.

[1] = tested on: hepatic OATP and MRP2 activity; settings: rat; lowest doses: DTZ 10 mg/kg s.c., CsA 0.01 mg/kg i.v.
Method: [^99mTc]mebrofenin scintigraphy was performed using a clinical SPECT-CT camera (Symbia®, Siemens, Knoxville, TN, USA) with a Low Energy High Resolution (LEHR) collimator. In each session, 3 rats were placed in a row on the scanner bed and catheters were inserted in the caudal vein. Experiments were performed for control conditions or after injection of the different transporter inhibitors. RIF (40 mg/kg intravenously, i.v.) was injected immediately before [^99mTc]mebrofenin as previously described [33]. […] Rats were injected with [^99mTc]mebrofenin (39 ± 4 MBq, i.v.) followed by dynamic planar acquisitions. Acquisitions were terminated by a X-ray CT scan.
Images were analyzed with PMOD® software (version 3.9, PMOD Technologies LLC). Regions of interest (ROI) were manually drawn on the liver, intestine, heart (= image-derived blood curve) and urinary bladder. Corresponding TACs were generated by plotting the mean radioactivity amount in each ROI normalized to the injected dose in each animal (cps/MBq) versus time.

[2] = tested on: hepatic OATP and MRP2 activity; parameters: method as in PMID 23440558; settings: cited from earlier work
[3] = mice, lowest tested dose 12.5 mg/kg i.v. followed by 3.12 mg/kg intraperitoneal

human MRP2, sequence (Q92887 whole entry): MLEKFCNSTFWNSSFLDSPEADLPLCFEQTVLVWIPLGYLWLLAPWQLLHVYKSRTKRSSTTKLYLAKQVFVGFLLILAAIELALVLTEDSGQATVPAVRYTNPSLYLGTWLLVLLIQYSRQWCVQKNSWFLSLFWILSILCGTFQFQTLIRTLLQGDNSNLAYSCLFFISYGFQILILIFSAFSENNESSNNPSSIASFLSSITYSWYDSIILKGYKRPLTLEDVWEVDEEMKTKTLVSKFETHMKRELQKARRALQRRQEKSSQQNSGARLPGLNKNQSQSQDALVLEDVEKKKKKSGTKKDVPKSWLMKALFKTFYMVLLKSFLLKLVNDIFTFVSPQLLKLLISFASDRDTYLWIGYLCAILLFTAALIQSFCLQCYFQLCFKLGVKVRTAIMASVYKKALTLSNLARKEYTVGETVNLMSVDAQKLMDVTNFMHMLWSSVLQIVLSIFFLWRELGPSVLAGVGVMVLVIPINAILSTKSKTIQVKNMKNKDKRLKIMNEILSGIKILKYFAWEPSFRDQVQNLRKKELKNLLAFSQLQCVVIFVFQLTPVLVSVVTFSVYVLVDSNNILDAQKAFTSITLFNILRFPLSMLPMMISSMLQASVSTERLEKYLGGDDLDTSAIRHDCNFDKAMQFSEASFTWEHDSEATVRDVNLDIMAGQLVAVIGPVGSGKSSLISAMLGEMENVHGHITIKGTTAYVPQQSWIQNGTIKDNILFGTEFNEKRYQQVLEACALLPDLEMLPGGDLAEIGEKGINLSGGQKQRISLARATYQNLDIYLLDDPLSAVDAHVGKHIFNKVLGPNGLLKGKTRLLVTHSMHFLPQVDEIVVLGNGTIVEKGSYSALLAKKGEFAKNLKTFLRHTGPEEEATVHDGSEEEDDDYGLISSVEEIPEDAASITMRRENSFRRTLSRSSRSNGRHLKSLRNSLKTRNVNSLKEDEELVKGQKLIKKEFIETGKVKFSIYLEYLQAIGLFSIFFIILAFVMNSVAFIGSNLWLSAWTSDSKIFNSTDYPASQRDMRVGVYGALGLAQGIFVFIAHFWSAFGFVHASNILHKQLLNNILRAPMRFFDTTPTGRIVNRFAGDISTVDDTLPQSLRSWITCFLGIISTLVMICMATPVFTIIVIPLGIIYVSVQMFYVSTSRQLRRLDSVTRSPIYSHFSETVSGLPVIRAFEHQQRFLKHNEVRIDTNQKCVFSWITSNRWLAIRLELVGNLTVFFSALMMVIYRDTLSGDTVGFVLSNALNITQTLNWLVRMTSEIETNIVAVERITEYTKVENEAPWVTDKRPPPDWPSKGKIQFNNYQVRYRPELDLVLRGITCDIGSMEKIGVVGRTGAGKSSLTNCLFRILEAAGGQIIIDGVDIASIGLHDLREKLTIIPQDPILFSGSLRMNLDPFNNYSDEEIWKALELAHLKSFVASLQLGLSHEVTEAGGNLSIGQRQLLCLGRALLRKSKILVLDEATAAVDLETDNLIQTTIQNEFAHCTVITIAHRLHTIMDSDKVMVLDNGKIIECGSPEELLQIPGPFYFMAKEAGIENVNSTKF

| Structure (SMILES) | tolerance of i.v. doses higher than 3 mg/kg (rats) | outcome of intravenous injection (rats; iv, 40 mg/kg) | IC50 (human MRP2) [µM] | effect on initial liver uptake (AUCRliver/blood 0–3 min) of [99mTc]mebrofenin [1] | concentration achieving full MRP2 inhibition (human MRP2; MDCK-II-MRP2 cells, calcein-AM assay) [µM] | change in AUCRbile/liver of [99mTc]mebrofenin (biliary excretion) ([2]; mice, higher doses of RIF) [%] | change in AUCRbile/liver of [99mTc]mebrofenin (biliary excretion) [2, 3] [%] | effect on liver uptake of [99mTc]mebrofenin [2, 3] | fold decrease in AUCRbile/liver with MRP2-deficiency ([2]; MRP2-deficient mice) |
| --- | --- | --- | --- | --- | --- | --- | --- | --- | --- |
| COc1ccc([C@@H]2Sc3ccccc3N(CCN(C)C)C(=O)[C@@H]2OC(C)=O)cc1 [DTZ, Diltiazem] | poor tolerance | lethal | 4.4 | did not affect |  |  |  |  |  |
| CO[C@H]1/C=C/O[C@@]2(C)Oc3c(C)c(O)c4c(O)c(c(/C=N/N5CCN(C)CC5)c(O)c4c3C2=O)NC(=O)/C(C)=C\C=C\[C@H](C)[C@H](O)[C@@H](C)[C@@H](O)[C@@H](C)[C@H](OC(C)=O)[C@@H]1C [RIF, rifampicin] |  |  | 210 |  | > 500 | −94 | −25 | did not impact |  |
| Cc1cc(C)c(NC(=O)CN(CC(=O)[O-])CC(=O)[O-])c(C)c1Br.Cc1cc(C)c(NC(=O)CN(CC(=O)[O-])CC(=O)[O-])c(C)c1Br.[99Tc+4] [[^99mTc]mebrofenin] |  |  |  |  |  |  |  |  | ~ 10 fold |
